From US20250387392A1, “PYRIDAZINONE COMPOSITIONS FOR THE TREATMENT OF NEUROMUSCULAR CONDITIONS” (Edgewise Therapeutics, Inc., priority 2022, published 2025)

What was measured:
[1] = Plasma PK of Compound 1 in adults with BMD (ARCH open label study); format: in vivo, human; design: Mean AUC for the Compound 1 Plasma PK levels: unit not given here; conditions: for Mean AUC for the Compound 1 Plasma PK levels: BMD patients
Procedure: FIG. 4 depicts plasma levels of Compound 1 and step count of BMD patients after four months of dosing.
(§1) FIGS. 2 to 8 depict positive 4-month interim results from the ongoing open label, single-center study assessing the safety, tolerability, and impact on muscle damage biomarkers, and pharmacokinetics (PK) of Compound 1 in adults with BMD. Twelve adults with BMD enrolled in the ARCH study, were dose escalated to daily 15 mg oral doses of Compound 1 at night after having initially received a 10 mg dose during the first 2 months of the study. […] All eligible patients have subsequently been dose escalated to 20 mg daily as per protocol.
(§2) FIGS. 10 to 13 depict promising 12-month results from the ongoing open label, single-center study assessing the safety, tolerability, and impact on muscle damage biomarkers, and pharmacokinetics (PK) of Compound 1 in adults with BMD. The different dosing regimens depicted in FIGS. 10A-10C, FIG. 111B, and FIGS. 12A-12F were carried out in three cohorts. One cohort has been dosed with 20 mg of Compound 1 for 12 months. A second cohort has been dosed with 15 mg of Compound 1 for 6 months. A third cohort has been dosed with 10 mg of Compound 1 for 2 months. […] Therefore, no treatment plans were discontinued due to AEs.
(§3) In parallel, the plasma concentrations of Compound 1 were also monitored across different dosing regimens. For group with higher dosage (e.g., the 20 mg group), there were patients with high exposures or low exposures. It was unexpected that the patients with high exposures reached to a range of plasma concentration after dosing with 20 mg/day, which was more than 4-fold higher than the target exposures predicted from preclinical models. It is also worth noting that Compound 1 was enriched in muscle. The target muscle concentration of Compound 1 from patients with lower plasma concentration were 1,000-4000 ng/g from preclinical experiments. Using muscle biopsy data from a Phase 1 multiple ascending dose (MAD) study, this equates to approximately 15-70 ng/ml in BMD. In other words, Compound 1 was enriched by about 60 fold in muscle compared to plasma.

[2] = Muscle versus plasma concentration, muscle biopsy data from Phase 1 multiple ascending dose (MAD) study; format: in vivo, human
Procedure: as §3

[3] = system: adults with BMD; assay: Safety and tolerability in adults with BMD (ARCH open label study); format: in vivo, human
Procedure: as §1, §2

[4] = system: creatine kinase (CK); assay: Muscle damage biomarker creatine kinase in adults with BMD (activity assay / SOMAscan); format: in vivo, human
Procedure: as §1
(§4) Treatment with Compound 1 led to a significant decrease in key biomarkers of muscle damage when assessed by laboratory assays. Importantly, CK and fast skeletal muscle troponin I were reduced by an average of 29% and 73%, respectively, after 4 months (FIG. 5).
(§5) Several biomarkers of muscle damage were tested to evaluate the efficacy of Compound 1 with different dosing regimens.
(§6) Changes in muscle injury biomarkers such as creatine kinase (CK) or fast skeletal muscle troponin I (TNNI2) were assessed in clinical trial participants. The abundance of the biomarkers were measured by plasma proteomics (SOMAscan) in short- (1-2 months), mid- (3-4 months), or long-term (6-12 months) treatment. FIG. 14A illustrates the design of this study. 12 BMD participants, 7 of whom participated in the Phase I MAD study (Example 2), were enrolled and initially treated with 10 mg of Compound 1 daily, with dose-escalation from 10 mg to 20 mg daily as shown. Blood draws were taken at pre-dose baseline, then at regular intervals thereafter for analysis by SOMAscan, as well as quantification of CK activity or TNNI2 concentration by an activity assay or ELISA. SOMAscan is a multistep modified aptamer-based assay for highOthroughpu, sensitive, and unbiased biomarker measurement. Proteins in the samples were selectively bound with fluorescent aptamers, which were then measured on a chip array to yield values proportion to absolute concentrations.
(§7) In this study, SOMAscan was correlated to CK and TNNI2 to allow for direct conversion to absolute concentrations as well as used to identify large-scale proteomic differences between short- and long-term treatment with Compound 1. FIG. 14B illustrates validation of CK and TNNI2, where a strong correlation between SOMAscan and absolute measurements of CK (left) and TNNI2 (right) was observed. FIG. 14C illustrates SOMAscan-quantified CK and TNNI2 in blood. […] Indicated significance was for all values at that treatment point relative to pre-dose baseline. FIG. 14D and FIG. 14E illustrate the effect of Compound 1 on muscle injury proteins. SOMAscan was used to analyze the effects of treatment on a set of proteins identified to correlate with bona-fide contraction-induced skeletal muscle injury (FIG. 14D).

[5] = system: fast skeletal muscle troponin I (TNNI2); assay: Muscle damage biomarker fast skeletal muscle troponin I in adults with BMD (ELISA / SOMAscan); format: in vivo, human
Procedure: as §1, §4, §5, §6, §7

[6] = system: myoglobin; assay: Muscle damage biomarker myoglobin in adults with BMD; format: in vivo, human
Procedure: as §2, §5

[7] = system: adults with BMD; assay: North Star Ambulatory Assessment (NSAA) in adults with BMD; format: in vivo, human; conditions: for NSAA outcome: 20 mg group
Excerpt: After 4 months of Compound 1 dosing, NSAA increased by an average of 1.17 points compared to pre-therapy baseline. […] The NSAA improvements observed after only 4 months of Compound 1 dosing differ from trajectories observed in the natural history study reported by Bello et al. (2016), one of the most comprehensively characterized BMD cohorts, in which the yearly decline was 1.22 NSAA points.
NSAA scores were also quantified based on FIGS. 9A-9C. Compound 1 stabilized NSAA scores by rescuing the natural history trend by about 1.6 points, and led to a trend towards an improvement in the scores. […] In comparison, the expected natural history decline in untreated patients is around −1.2 to −1.3 points.
Therefore, a lower exposure of Compound 1 (e.g., 10 mg) may have a more desired functional benefit.

[8] = system: adults with BMD; assay: Functional tests (velocity, muscle strength) in adults with BMD; format: in vivo, human
Excerpt: FIG. 7 depicts increases in functional measures such; walk/run velocity, stair climb velocity, and grip strength in BMD patients at two and four months following the initial administration of Compound 1 in comparison to baseline measurements.
FIGS. 12A-12F depict the functional evaluation after the treatment of Compound 1. FIG. 12A depicts the average 10 m velocity in different dosing regimens. All p-values NS with a 7% decrease at 12 months. Last observation carried forward (all N=12, except for 2 missing values, month 4 and 8). FIG. 12B depicts the average 100 meter velocity in different dosing regimens. All p-values NS with 0% change at 12 months. Last observation carried forward (all N=12, except for 2 missing values, month 4 and 8). FIG. 12C depicts the average 4-stair climb time velocity in different dosing regimens. All p-values NS except that p value for 12 months was 0.016, which was 13% decrease at 12 months. FIG. 12D depicts the average maximum grip strength in different dosing regimens. p-values <0.05 at 4, 6, 8 month and NS at 12 months. There was a 8% decrease at 12 months. FIG. 12E depicts the average maximum knee extension strength in different dosing regimens. P-values <0.05 at 4, 8, 12 month. There was a 25% decrease at 12 months. FIG. 12F depicts the maximum elbow flexion strength in different dosing regimens. All p-values NS, and there was no change at 12 months.
Furthermore, functional tests were carried out to evaluate the functional improvements of muscle in the participants resulted from Compound 1. […] Different parameters of muscle strength were also quantified and evaluated in FIGS. 12D-12F.

[9] = system: adults with BMD; assay: Self-reported pain score in adults with BMD; format: in vivo, human
Excerpt: FIG. 8 depicts a decrease in the self-reported pain score in BMD patients at two and four months following the initial administration of Compound 1.
BMD individuals usually report more diffuse pain on spine and calves, See Jacques M F et al., Plos ONE (2019). Self-reported pain evaluation was collected and quantified in FIG. 13. […] Therefore, Compound 1 has shown to reduce pain associated with BMD.

[10] = system: muscle injury proteins; assay: SOMAscan plasma proteomics, muscle injury proteins, BMD participants; format: in vivo, human
Procedure: as §6
In this study, SOMAscan was correlated to CK and TNNI2 to allow for direct conversion to absolute concentrations as well as used to identify large-scale proteomic differences between short- and long-term treatment with Compound 1. […] FIG. 14C illustrates SOMAscan-quantified CK and TNNI2 in blood. […]

[11] = system: proinflammatory cytokines and chemokines, anti-inflammatory interleukins; assay: SOMAscan plasma proteomics, inflammatory proteins, BMD participants; format: in vivo, human
Procedure: as §6
FIG. 14G and FIG. 14H illustrate favorable shift in inflammatory biomarkers with long-term treatment. […] The observed protein concentration changes after 6-12 months were consistent across study participants (FIG. 14H).

[12] = Preclinical experiments, target muscle concentration; format: in vivo; conditions: from preclinical experiments
Procedure: as §3

[13] = after 4 months, laboratory assay
[14] = short-term treatment (1-2 months), relative to pre-dose baseline
[15] = two and four months after initial administration (FIG. 7)

O=c1ccc(-c2cnc(OCC(F)(F)F)nc2)nn1Cc1cncc(F)c1 [Compound 1]
Mean AUC for the Compound 1 Plasma PK levels ([1]; 10 mg dose): 1,454 | Mean AUC for the Compound 1 Plasma PK levels ([1]; 15 mg dose): 2,299 | Mean AUC for the Compound 1 Plasma PK levels ([1]; 20 mg dose): 2,293 | Plasma concentration relative to target exposures predicted from preclinical models ([1]; 20 mg/day, patients with high exposures): more than 4 fold | Kp ([2]; human, muscle, read-out: Enrichment in muscle compared to plasma): ~60 | Plasma concentration equating to target muscle concentration ([2]; in BMD, using Phase 1 MAD muscle biopsy data): 15 to 70 ng/mL | Most common adverse events ([3]; 4-month interim): dizziness, drowsiness, and headache | Tolerability ([3]; 4-month interim, 10 mg for 2 months then 15 mg daily oral at night, twelve adults with BMD): well-tolerated in all participants with no discontinuations or dose reductions | Tolerability ([3]; 12-month results, 10, 15 and 20 mg doses): well tolerated at all doses without any severe adverse events | Change of creatine kinase (CK) level ([4]; 10 mg dose): near maximal decreases | Average reduction of CK [4, 13]: 29% | Change of creatine kinase (CK) level ([4]; different dosing regimens up to 12 months (FIG. 10A)): sustained decrease | SOMAscan-quantified circulating CK [4, 14]: reduced by short-term treatment | Change of TNNI2 level ([5]; 10 mg dose): near maximal decreases | Average reduction of fast skeletal muscle troponin I [5, 13]: 73% | Patients reaching fast skeletal muscle troponin I levels of unaffected adults ([5]; after 4 months, twelve participants): four patients achieving levels observed in unaffected adults | Change of TNNI2 level ([5]; different dosing regimens up to 12 months (FIG. 10B)): sustained decrease | SOMAscan-quantified circulating TNNI2 ([5]; longer-term treatment timepoints): reduced to nearly healthy levels | SOMAscan-quantified circulating TNNI2 [5, 14]: reduced by short-term treatment | Change of myoglobin level ([6]; 10 mg dose): near maximal decreases | Change of myoglobin level ([6]; different dosing regimens up to 12 months (FIG. 10C)): sustained decrease | NSAA outcome ([7]; participants under high exposures (negative changes in NSAA)): less optimal outcomes | NSAA outcome ([7]; participants with the lower exposures): stable or the best improving NSAA scores | Participants with the same or better NSAA scores ([7]; 12-month group (FIG. 11C)): about 75% | NSAA rescue of the natural history trend ([7]; 12-month results (FIG. 11A)): about 1.6 points | Average NSAA increase compared to pre-therapy baseline ([7]; after 4 months of dosing): 1.17 points | Participants with functional improvement or no decline on NSAA relative to baseline ([7]; after 4 months of dosing): nine of the twelve | Deterioration in 10 m velocity ([8]; 12-month results (FIG. 12A)): no statistically significant deterioration | Deterioration in 100 meter velocity ([8]; 12-month results (FIG. 12B)): no statistically significant deterioration | Deterioration in 4-stair climb time velocity ([8]; 12-month results (FIG. 12C)): no statistically significant deterioration | Decrease in average 4-stair climb time velocity ([8]; at 12 months, p 0.016 (FIG. 12C)): 13% | Decrease in average maximum knee extension strength ([8]; at 12 months, p <0.05 (FIG. 12E)): 25% | Decrease in average 10 m velocity ([8]; at 12 months, p NS (FIG. 12A)): 7% | Change in average 100 meter velocity ([8]; at 12 months, p NS (FIG. 12B)): 0% | Decrease in average maximum grip strength ([8]; at 12 months, p NS (FIG. 12D)): 8% | Change in maximum elbow flexion strength ([8]; at 12 months, p NS (FIG. 12F)): no change | Muscle strength effect ([8]; some participants from the 20 mg group (FIGS. 12C-12F)): muscle strength weakness | Grip strength versus baseline [8, 15]: increases | Stair climb velocity versus baseline [8, 15]: increases | Walk/run velocity versus baseline [8, 15]: increases | Self-reported pain scores ([9]; after 12 months of treatment (FIG. 13)): positive trend | Self-reported pain score ([9]; two and four months after initial administration (FIG. 8)): decrease | Muscle injury proteins (SOMAscan) ([10]; long-term treatments (6-12 months)): stable levels or further decreases | Muscle injury proteins (SOMAscan) ([10]; short-term treatment (1-2 months, 10 mg)): decreased from pre-dose baseline | Proinflammatory cytokines and chemokines (SOMAscan) ([11]; after 6-12 months): very significantly reduced | Anti-inflammatory interleukins (SOMAscan) ([11]; after long-term treatment (6-12 months)): increased | Target muscle concentration of Compound 1 [12]: 1,000-4000 ng/g
